Experimental data reported in the supplement of paper PMC11208160.

assay: recombinant barcode read abundance after kanamycin selection (control-corrected) (log10(CPM+1)); higher = more efficient recombination; sequences stand for … in AGTGCAGAGAAAATCGGCCAGTTTTCTCTGCCTGCAGTCCGCATGCCGT…AGATTTATGCAGCGGACTGCCTTTCTCCCAAAGTGATAAACCGGACAGTATCATGGACCGGTTTTCCCGGTAATCCGTATTTGCAAGGTTGGTTTCACT; site = the 11-nt target
Outline: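 Recombination efficiency was calculated from barcode counts at recombinant junctions, normalized to counts per million, averaged and corrected by the control. Each value is given as log10(CPM+1). The constructs were Gibson-cloned oligos (promoter, target, barcode, J23119-driven first 104 bridge RNA bases) in a vector with the remaining 73 bp and a T7-inducible recombinase, co-electroporated into E. coli with a donor plasmid and plated in duplicate on chloramphenicol/ampicillin LB agar (control) or chloramphenicol/ampicillin/kanamycin with 0.1 mM IPTG.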
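Further: IS621 recombinase and bridge RNA in Escherichia coli cells.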

Sequence	recombinant barcode read abundance (log10)
CAAAGACCTTGGGTTCTAACCTGTTGCGG (site CAAAGACCTCC)	2.06
CAAAGATCTTGGGTTCTAACCTGTTGCTT (site CAAAGATCTAA)	1.03
CAAAGATCTTGGGTTCTAACCTGTTGCTT (site CACAGATCTAA)	0.046
CAAAGATCTTGGGTTCTAACCTGTTGCTT (site CAGAGATCTAA)	0.0421
CAAAGATCTTGGGTTCTAACCTGTTGCTT (site CATAGATCTAA)	0.108
CAAAGGCCTTGGGTTCTAACCTGTTGCCT (site CAAAGGCCTAG)	0.173
CAAAGGCCTTGGGTTCTAACCTGTTGCCT (site CAACGGCCTAG)	0.0335
CAAAGGCCTTGGGTTCTAACCTGTTGCCT (site CAAGGGCCTAG)	0.228
CAAAGGCCTTGGGTTCTAACCTGTTGCCT (site CAATGGCCTAG)	0.157
CAAAGGTCTTGGGTTCTAACCTGTTGCTA (site CAAAGGTCTTA)	1.39
CAAAGGTCTTGGGTTCTAACCTGTTGCTA (site TAAAGGCCTTA)	0.0182
CAAAGTGCTTGGGTTCTAACCTGTTGCCT (site CAAAGTGCTAG)	0.517
CAAAGTGCTTGGGTTCTAACCTGTTGCCT (site GAAAGTGCTAG)	0.205
CAAATGTCTTGGGTTCTAACCTGTTGCCT (site AAAATGCCTAG)	0.299
CAAATGTCTTGGGTTCTAACCTGTTGCCT (site CAAATGTCTAG)	1.1
CAACACCCTTGGGTTCTAACCTGTTGCAT (site CAACACCCTAT)	2.33
CAACACCCTTGGGTTCTAACCTGTTGCAT (site GTTTCAACTTG)	0.157
CAACCACCTTGGGTTCTAACCTGTTGCTT (site CAAACACCTAA)	0.142
CAACCACCTTGGGTTCTAACCTGTTGCTT (site CAACCACCTAA)	1.41
CAACCACCTTGGGTTCTAACCTGTTGCTT (site CAAGCACCTAA)	0.0953
CAACCACCTTGGGTTCTAACCTGTTGCTT (site CAATCACCTAA)	0.159
CAAGTACCTTGGGTTCTAACCTGTTGCCT (site AAAGTACCTAG)	0.343

Sequence	recombinant barcode read abundance (log10)
CAAGTACCTTGGGTTCTAACCTGTTGCCT (site CAAGTACCTAG)	0.688
CAAGTACCTTGGGTTCTAACCTGTTGCCT (site GAAGTACCTAG)	0.185
CAAGTACCTTGGGTTCTAACCTGTTGCCT (site TAAGTACCTAG)	0.22
CAAGTTGCTTGGGTTCTAACCTGTTGCCT (site CAAGTAGCTAG)	0.14
CAAGTTGCTTGGGTTCTAACCTGTTGCCT (site CAAGTCGCTAG)	0.305
CAAGTTGCTTGGGTTCTAACCTGTTGCCT (site CAAGTGGCTAG)	0.227
CAAGTTGCTTGGGTTCTAACCTGTTGCCT (site CAAGTTGCTAG)	1.43
CAATGGGCTTGGGTTCTAACCTGTTGCCG (site CAATGGGCTCG)	0.961
CAATGGGCTTGGGTTCTAACCTGTTGCCG (site CGATGGACTCG)	0.179
CAATGGTCTTGGGTTCTAACCTGTTGCCT (site CAATGGTCTAA)	0.376
CAATGGTCTTGGGTTCTAACCTGTTGCCT (site CAATGGTCTAC)	0.0107
CAATGGTCTTGGGTTCTAACCTGTTGCCT (site CAATGGTCTAG)	1.54
CAATGGTCTTGGGTTCTAACCTGTTGCCT (site CAATGGTCTAT)	0.939
CAATGGTCTTGGGTTCTAACCTGTTGCGT (site CAATGGTCTAA)	0.583
CAATGGTCTTGGGTTCTAACCTGTTGCGT (site CAATGGTCTAC)	3.06
CAATGGTCTTGGGTTCTAACCTGTTGCGT (site CAATGGTCTAG)	0.638
CAATGGTCTTGGGTTCTAACCTGTTGCGT (site CAATGGTCTAT)	2.16
CACAATCCTTGGGTTCTAACCTGTTGCGT (site CACAATCCTAC)	1.76
CACAATCCTTGGGTTCTAACCTGTTGCGT (site CACACACCTAC)	0.0965
CACACGACTTGGGTTCTAACCTGTTGCCT (site CACACGACTAG)	0.99
CACACGACTTGGGTTCTAACCTGTTGCCT (site CACACGTCTAG)	0.109
CACACGTCTTGGGTTCTAACCTGTTGCCT (site CACACGACTAG)	0.103

Sequence	recombinant barcode read abundance (log10)
CACACGTCTTGGGTTCTAACCTGTTGCCT (site CACACGTCTAG)	1.24
CACACTACTTGGGTTCTAACCTGTTGCTG (site CACACTACTCA)	0.818
CACACTACTTGGGTTCTAACCTGTTGCTG (site GGTGAGCCTAC)	0.24
CACAGACCTTGGGTTCTAACCTGTTGCCT (site AACAGACCTAG)	0.00929
CACAGACCTTGGGTTCTAACCTGTTGCCT (site CACAGACCTAG)	1.47
CACAGACCTTGGGTTCTAACCTGTTGCCT (site GACAGACCTAG)	0.205
CACAGACCTTGGGTTCTAACCTGTTGCCT (site TACAGACCTAG)	0.251
CACAGATCTTGGGTTCTAACCTGTTGCTT (site CAAAGATCTAA)	0.14
CACAGATCTTGGGTTCTAACCTGTTGCTT (site CACAGATCTAA)	0.351
CACAGATCTTGGGTTCTAACCTGTTGCTT (site CAGAGATCTAA)	0.122
CACAGATCTTGGGTTCTAACCTGTTGCTT (site CATAGATCTAA)	0.0763
CACAGTACTTGGGTTCTAACCTGTTGCCT (site AACAGTACTAG)	0.0407
CACAGTACTTGGGTTCTAACCTGTTGCCT (site CACAGTACTAG)	0.901
CACAGTACTTGGGTTCTAACCTGTTGCCT (site GACAGTACTAG)	0.29
CACAGTACTTGGGTTCTAACCTGTTGCCT (site TACAGTACTAG)	0.0394
CACAGTCCTTGGGTTCTAACCTGTTGCTA (site AGGGTCGCTAG)	0.049
CACAGTCCTTGGGTTCTAACCTGTTGCTA (site CACAGTCCTTA)	0.966
CACCAAACTTGGGTTCTAACCTGTTGCCT (site CACCAAACTAG)	0.299
CACCAAACTTGGGTTCTAACCTGTTGCCT (site CACCAACCTAG)	0.0986
CACCACCCTTGGGTTCTAACCTGTTGCGG (site CACCACCCTCC)	1.35
CACCACCCTTGGGTTCTAACCTGTTGCGG (site GGTACTTCTAA)	0.358
CACCGAGCTTGGGTTCTAACCTGTTGCCG (site CAACGAGCTCG)	0.223
